Two compounds from paper PMC5478271, “Chemical structure-guided design of dynapyrazoles, cell-permeable dynein inhibitors with a unique mode of action” (eLife, 2017) can be followed below.

The test system of this series is Gli-driven luciferase reporter in NIH-3T3 (Shh-Light2) cells. The series can be described thus: Hedgehog pathway activity, Gli-driven luciferase reporter (Shh-Light2 cells, SAG-stimulated). The class given is cell-based. The settings on record: for Concentration at which cell death was observed: 28 hr time course, ~10-fold above the IC50; for IC50: Shh Light2, SAG 500 nM, low serum (0.5% BCS), 28–32 hr, read-out: IC50, inhibition of Gli-driven luciferase reporter expression. From the text: We next examined the inhibition of dynein 2 by dynapyrazole-A in cell-based assays. In cell culture, serum starvation results in the formation of primary cilia, which are required for Hedgehog signaling ([Goetz and Anderson, 2010]). Quiescent cells respond to the Hedgehog ligand or to a synthetic agonist and pathway activity can be measured using a Gli-driven luciferase reporter ([Taipale et al., 2000]; [Chen et al., 2002]). Expression of Hedgehog-driven luciferase reporter was inhibited by dynapyrazole-A (Compound 8, IC50: 1.9 ± 0.6 µM) ~8 fold more potently than ciliobrevin D (IC50: 15.5 ± 3 µM, Figure 3I). […] In this assay, we have also observed cell death at high ciliobrevin D concentrations (200 µM,~10x above its IC50). To stimulate Hedgehog pathway activity, we used the synthetic agonist of smoothened (SAG) ([Chen et al., 2002]), which competes with many known Hedgehog pathway inhibitors for binding to Smoothened, a key protein in this signaling pathway ([Sharpe et al., 2015]). As dynapyrazole-A inhibits Hedgehog signaling at high SAG concentrations (500 nM), it is likely to act downstream of Smoothened, as was previously noted for ciliobrevins and consistent with inhibition of dynein 2 ([Hyman et al., 2009]; [Firestone et al., 2012]).
NIH-3T3 cells stably expressing a luciferase reporter downstream of a Gli binding site (Shh-Light2 cells, RRID: CVCL_2721) were maintained in DMEM with 10% bovine calf serum (BCS). Cells were seeded at a density of 30,000 cells/well in 96-well tissue culture-treated plates (Corning, cat #353072) in 100 μL in DMEM +10% BCS, and incubated for 48 hr ([Taipale et al., 2000]). Wells were washed briefly with PBS. Next 100 μL of low serum media (DMEM +0.5% BCS) containing smoothened agonist (SAG, 500nM), and either solvent control (0.2% DMSO) or test compound (serial threefold dilutions of each inhibitor starting from 20 μM) were added to the wells. After 28–32 hr of inhibitor treatment, cells were washed with 50 μL PBS and lysed for >30 min in 30 μL Passive Lysis Buffer (Promega Dual Luciferase kit, cat E1910). 5 μL of each lysate was transferred to white, solid-bottom 96-well plates (Greiner, cat #655075), followed by rapid addition (within 30 s) of 30 μL of Luciferase Assay Reagent using a multichannel pipette. Luminescence for each condition was read using a Synergy Neo plate reader (5 s integration time per well). Cell line identity was confirmed by measurement of the degree of response to Hedgehog pathway stimulation by the synthetic agonist SAG and using previously-published values from our groups and others as references ([Firestone et al., 2012]; [Hyman et al., 2009]).
Curve fitting: Where dose-response experiments are fit and IC50values given, these are obtained as follows: Individual experiments are treated as separate. The data are fit to a sigmoidal dose-response curve of the form (Y=Bottom + (Top-Bottom)/(1 + 10^((LogIC50-X)*HillSlope)). All variables were allowed to float freely with the exception of the variable denoted ‘bottom’, which was constrained to be >0. The separate IC50 values obtained from fits to each individual experiment's dataset were averaged together and presented as a mean with range (Figure 3G and H) or standard deviation (Figures 3I, 5D, 6E and K).

On to `N#Cc1c(C2(c3ccc(Cl)cc3)CC2)nn2c1[nH]c(=O)c1cc(I)ccc12` [Compound 8, 2-[1-(4-chlorophenyl)cyclopropyl]-7-iodo-5-oxo-4H-pyrazolo[1,5-a]quinazoline-3-carbonitrile], for which the “Concentration at which cell death was observed” value came to 20 µM and the IC50 came out at 1.9 ± 0.6 µM. In addition, for the setting “more potent than ciliobrevin D”, the “Potency relative to ciliobrevin D, Hedgehog-driven luciferase reporter” value was ~ 8 fold.

With `N#C/C(C(=O)c1ccc(Cl)cc1Cl)=C1\NC(=O)c2ccc(Cl)cc2N1` [ciliobrevin D, reference compound], the “Concentration at which cell death was observed” value is 200 µM and the IC50 amounted to 15.5 ± 3 µM.

Broadly, the IC50 is the concentration that inhibits the measured activity by half.
